{"source": "patent US20250213697A1", "about": "“INJECTABLE AND/OR SPRAYABLE, IN SITU POLYMERIZABLE COLLAGEN COMPOSITIONS FOR SUSTAINED DELIVERY OF THERAPEUTICS” (priority 2023, published 2025)", "type_in_all_cases": "physicochemical", "key": {"[1]": {"assay": "In vitro polymerization test of collagen/antibiotic compositions injected into WFI", "settings": "27-gauge needle", "description": "50 mg lyophilized and powdered (by mortar and pestle) Voriconazole was mixed with 200 μL of in situ polymerizable collagen solution prepared according to Example 1 by passing the powder into the collagen solution using two syringes attached with a female-female adaptor. The mixture appeared clear and transparent (FIG. 4A). Aliquots were injected into water for injection (WFI) using a 27-gauge needle. A control sample composed of in situ polymerizable collagen solution only was also injected into WFI.\nTwo other antibiotics, Cefuroxime and Vigamox, were mixed to in situ polymerizable collagen using the same method used for adding Voriconazole to the collagen to form a collagen/antibiotic composition, respectively. […] The appearance of the mixture depends on the solubility of the antibiotics."}, "[2]": {"assay": "In vitro release of Compstatin from in situ polymerizable collagen", "description": "Delivery of a complement peptide-Compstatin from in situ polymerizable collagen prepared according to Example 1 was studied in vitro. In vitro release was measured for 6 weeks to ascertain the optimum collagen formulation."}, "[3]": {"assay": "In vitro release of latanoprost from in situ polymerizable collagen gels into physiological saline (HPLC)", "description": "Latanoprost (13,14-dihydro-17-phenyl-18,19,20-trinor-prostaglandin F2a-1-isopropyl ester) was obtained from Sigma-Aldrich. Soluble, pepsin digested, bovine collagen for drug delivery formulations was purchased from Advanced Biomatrix. In situ polymerizable collagen was prepared according to Example 1 by extensive dialysis of salt precipitated collagen against 0.035M EDTA with step-wise increase in pH to 7.5. Latanoprost was dissolved in 95% ethanol and added to polymerizable collagen solution to provide gel depots containing 250 μg latanoprost/100 μL collagen. The solutions were incubated in 1.0 mL of physiological saline at 37° C. The entire 1.0 mL volume was removed at time periods ranging from 1 day to 174 days and replaced with 1.0 mL of fresh saline. Latanoprost concentration in saline aliquots was measured by HPLC analysis (Millennium Research Laboratories).\nIn situ polymerizable collagen gels provided sustained in vitro release of Latanoprost for more than 30 days."}, "[4]": {"assay": "Short-term controlled release of lidocaine from collagen gel into 0.9% NaCl (HPLC)", "settings": "gel in 0.9% NaCl, 37° C., 80 RPM; FIG. 6", "experimental": "One third of the same volume of collagen solution of a lidocaine sterile solution (0.9% Lidocaine, 7% Mannitol, 80 mM EDTA-2Na, 0.05M Na2CO3 and 0.05M NaHCO3) was added to collagen. 2 mL final mixed collagen solution was incubated under 37° C. to form a gel and put into 20 mL 37° C. 0.9% NaCl solution with a stir bar stirring at 80 RPM. At 10 min, 20 min, 30 min, 60 min, 90 min, and 120 min, 2 mL NaCl solution was collected to test lidocaine concentration and additional 2 mL 0.9% NaCl solution was replenished. HPLC method was used to measured lidocaine concentration and calculated to the percentage release of the lidocaine in collagen gel."}, "[5]": {"assay": "Film formation of sprayed in situ polymerizable collagen on skin or skin wounds", "settings": "EGF 5,000-20,000 IU/mL", "description": "The sprayable in situ polymerizable collagen was prepared by mix in situ polymerizable collagen prepared in Example 1 with PBS at volume ratio of 2:1. After mixing by stirring at 50 rpm for 10 min, the gel was centrifuge to remove the bubbles. The sprayable in situ polymerizable collagen was less viscous with better flowability and placed in a spray bottle and still remained transparent under room temperature. […] The in situ polymerizable collagen solution with EGF was sprayed to skin wounds through spray bottle and formed a film to cover the wound within 120 sec, providing a wet healing environment and continuous EGF delivery to accelerate skin healing or improve skin condition."}}, "data": [{"molecule": "CO/N=C(\\C(=O)N[C@@H]1C(=O)N2C(C(=O)O)=C(COC(N)=O)CS[C@H]12)c1ccco1", "note": "[Cefuroxime]", "values": [{"measurement": "collagen fibril formation", "setting": "[1]", "value": "do not blocking the fibril formation"}]}, {"molecule": "CC[C@H](C)[C@H](N)C(=O)N[C@H]1CSSC[C@@H](C(=O)N[C@H](C(N)=O)[C@@H](C)O)NC(=O)[C@H](CCCN=C(N)N)NC(=O)[C@H](Cc2cnc[nH]2)NC(=O)[C@H](Cc2cnc[nH]2)NC(=O)CNC(=O)[C@H](Cc2c[nH]c3ccccc23)NC(=O)[C@H](CC(=O)O)NC(=O)[C@H](CCC(N)=O)NC(=O)[C@H](C(C)C)NC(=O)[C@H](C(C)C)NC1=O", "note": "[Compstatin]", "values": [{"measurement": "duration of initial burst", "setting": "[2]", "value": 4, "unit": "days"}, {"measurement": "duration of sustained release", "setting": "[2]", "value": 6, "unit": "weeks"}, {"measurement": "release kinetics", "setting": "[2]; measured for 6 weeks", "value": "bi-phasic release kinetics"}]}, {"molecule": "CC(C)OC(=O)CCC/C=C\\C[C@@H]1[C@@H](CC[C@@H](O)CCc2ccccc2)[C@H](O)C[C@@H]1O", "note": "[Latanoprost, 13,14-dihydro-17-phenyl-18,19,20-trinor-prostaglandin F2a-1-isopropyl ester]", "values": [{"measurement": "duration of sustained in vitro release of Latanoprost", "setting": "[3]; in situ polymerizable collagen gels, saline 37° C.", "value": "more than 30 days"}, {"measurement": "initial release of Latanoprost", "setting": "[3]; polymerizable gels added directly to saline solution", "value": "large initial release"}, {"measurement": "sustained release of Latanoprost, average", "setting": "[3]; polymerizable gels added directly to saline solution, 250 μg latanoprost/100 μL collagen, 37° C.", "value": 0.54, "unit": "µg/day"}, {"measurement": "initial release of Latanoprost", "setting": "[3]; polymerizable gels partially pre-polymerized", "value": "reduced initial release"}, {"measurement": "average sustained release rate of Latanoprost", "setting": "[3]; polymerizable gels partially pre-polymerized before placing in solution, 250 μg latanoprost/100 μL collagen, 37° C.", "value": 1.4, "unit": "µg/day"}]}, {"molecule": "CCN(CC)CC(=O)Nc1c(C)cccc1C", "note": "[lidocaine]", "values": [{"measurement": "controlled release of lidocaine", "setting": "[4]", "value": "within two hours"}]}, {"molecule": "EGF: Epidermal Growth Factor lyophilized powder dissolved in in situ polymerizable collagen solution, 5,000-20,000 IU/mL", "values": [{"measurement": "time to form a film covering the wound", "setting": "[5]", "value": "≤ 120", "unit": "s"}]}]}
